These results are taken from ChEMBL document CHEMBL5325456, “5-(4-Hydroxyphenyl)-3H-1,2-dithiole-3-thione derivatives of brefeldin A: Design, synthesis and cytotoxicity in MDA-MB-231 human breast cancer cells” (Bioorg Med Chem, 2023).

Where only a bound is given, the exact number is not on record here.

Data set [1] in a line: Antiproliferative activity against human L02 cells assessed as reduction in cell viability incubated for 48 hrs by CCk-8 assay. In kind it is toxicity, cell-based.
A further data set has as its system A-375. Kind of data set: Antiproliferative activity against human A-375 cells assessed as reduction in cell viability incubated for 48 hrs by CCk-8 assay. In kind it is functional, cell-based. The settings on record: A-375, 48 h.
In the next data set the test system is MDA-MB-231. Kind of data set: Antiproliferative activity against human MDA-MB-231 cells assessed as reduction in cell viability incubated for 48 hrs by CCk-8 assay. In kind it is functional, cell-based. The settings on record: MDA-MB-231, 48 h.
For the next data set, the system named is HeLa. Kind of data set: Antiproliferative activity against human HeLa cells assessed as reduction in cell viability incubated for 48 hrs by CCk-8 assay. In kind it is functional, cell-based.
The subject of the next data set is HepG2. The experiment in a line: Antiproliferative activity against human HepG2 cells assessed as reduction in cell viability incubated for 48 hrs by CCk-8 assay. In kind it is functional, cell-based. Conditions: HepG2, 48 h.
A further data set deals with A549. The experiment in a line: Antiproliferative activity against human A549 cells assessed as reduction in cell viability incubated for 48 hrs by CCk-8 assay. In kind it is functional, cell-based. Conditions: A549, 48 h.
In another data set the test system is DU-145. Kind of data set: Antiproliferative activity against human DU-145 cells assessed as reduction in cell viability incubated for 48 hrs by CCk-8 assay. In kind it is functional, cell-based. Conditions: DU-145, 48 h.

On to `C[C@H]1CCC/C=C/[C@@H]2C[C@H](OC(=O)c3ccccc3C(=O)OCCOc3ccc(-c4cc(=S)ss4)cc3)C[C@H]2[C@H](OC(=O)c2ccccc2C(=O)OCCOc2ccc(-c3cc(=S)ss3)cc2)/C=C/C(=O)O1`, for which the IC50 at 48 h in data set [1] was above 40 µM. In addition, the IC50 in the data set on A-375, with MDA-MB-231, in the data set with HeLa, with HepG2, with A549 and in the data set on DU-145 was above 40 µM in each case.

For the compound `C[C@H]1CCC/C=C/[C@@H]2C[C@H](OC(=O)c3ccccc3C(=O)OCCCCOc3ccc(-c4cc(=S)ss4)cc3)C[C@H]2[C@H](OC(=O)c2ccccc2C(=O)OCCCCOc2ccc(-c3cc(=S)ss3)cc2)/C=C/C(=O)O1`, the IC50 at 48 h in data set [1] is above 40 µM. Besides, the 50% inhibitory concentration (IC50) in the data set on A-375, with MDA-MB-231, with HeLa, in the data set on HepG2, in the data set on A549 and in the data set on DU-145 was above 40 µM each time.

As for `C[C@H]1CCC/C=C/[C@@H]2C[C@H](OC(=O)c3ccccc3C(=O)Oc3ccc(-c4cc(=S)ss4)cc3)C[C@H]2[C@H](OC(=O)c2ccccc2C(=O)Oc2ccc(-c3cc(=S)ss3)cc2)/C=C/C(=O)O1`, the IC50 at 48 h in data set [1] is above 40 µM. The IC50 in the data set with A-375, with MDA-MB-231, with HeLa, in the data set with HepG2, in the data set on A549 and with DU-145 was above 40 µM each time.

`C[C@H]1CCC/C=C/[C@@H]2C[C@H](OC(=O)CCC(=O)OCCOc3ccc(-c4cc(=S)ss4)cc3)C[C@H]2[C@H](OC(=O)CCC(=O)OCCOc2ccc(-c3cc(=S)ss3)cc2)/C=C/C(=O)O1`: the IC50 at 48 h in data set [1] was above 40 µM. Further, the IC50 was above 40 µM in the data set on A-375; above 40 µM in the data set on MDA-MB-231; 5.68 µM in the data set on HeLa; above 40 µM with HepG2; above 40 µM in the data set with A549; above 40 µM with DU-145.

For `C[C@H]1CCC/C=C/[C@@H]2C[C@H](OC(=O)CCC(=O)OCCCCOc3ccc(-c4cc(=S)ss4)cc3)C[C@H]2[C@H](OC(=O)CCC(=O)OCCCCOc2ccc(-c3cc(=S)ss3)cc2)/C=C/C(=O)O1`, the IC50 at 48 h in data set [1] is above 40 µM. Also, the IC50 in the data set on A-375, in the data set with MDA-MB-231, with HeLa, in the data set on HepG2, in the data set with A549 and in the data set on DU-145 was above 40 µM throughout.

Take `Oc1ccc(-c2cc(=S)ss2)cc1`: the IC50 at 48 h in data set [1] came to 16.8 µM. Besides, the IC50 in the data set on A-375 was above 40 µM; in the data set on MDA-MB-231 it was 33.2 µM; in the data set on HeLa, 6.48 µM; in the data set on HepG2, 13.8 µM; in the data set on A549, 27.6 µM; in the data set with DU-145 it was 12.7 µM.

Turning to `C[C@H]1CCC/C=C/[C@@H]2C[C@H](OC(=O)CCC(=O)OCCOc3ccc(-c4cc(=S)ss4)cc3)C[C@H]2[C@H](O)/C=C/C(=O)O1`, the IC50 at 48 h in data set [1] is above 80 µM. Besides, the IC50 in the data set on A-375, in the data set on MDA-MB-231, with HeLa, in the data set on HepG2, in the data set with A549 and with DU-145 was above 40 µM in each case.

With `C[C@H]1CCC/C=C/[C@@H]2C[C@H](OC(=O)CCCC(=O)Oc3ccc(-c4cc(=S)ss4)cc3)C[C@H]2[C@H](OC(=O)CCCC(=O)Oc2ccc(-c3cc(=S)ss3)cc2)/C=C/C(=O)O1`, the IC50 at 48 h in data set [1] was above 40 µM. The IC50 in the data set on A-375, in the data set on MDA-MB-231, in the data set on HeLa, in the data set with HepG2, with A549 and in the data set on DU-145 was above 40 µM throughout.

With `C[C@H]1CCC/C=C/[C@@H]2C[C@H](OC(=O)CCC(=O)OCCCCOc3ccc(-c4cc(=S)ss4)cc3)C[C@H]2[C@H](O)/C=C/C(=O)O1`, the IC50 at 48 h in data set [1] is above 80 µM. Besides, the IC50 in the data set with A-375, in the data set with MDA-MB-231, in the data set with HeLa, with HepG2, with A549 and in the data set with DU-145 was above 40 µM throughout.

For `CC(=O)O[C@H]1C(=O)[C@@]2(C)[C@H]([C@H](OC(=O)c3ccccc3)[C@]3(O)C[C@H](OC(=O)[C@H](O)[C@@H](NC(=O)c4ccccc4)c4ccccc4)C(C)=C1C3(C)C)[C@]1(OC(C)=O)CO[C@@H]1C[C@@H]2O` [PACLITAXEL], in data set [1], the IC50 at 48 h is 0.13 µM. The IC50 came out at 0.059 µM with A-375; 0.33 µM in the data set with MDA-MB-231; 0.034 µM with HeLa; 0.55 µM in the data set with HepG2; 0.014 µM in the data set on A549.

In the case of `C[C@H]1CCC/C=C/[C@@H]2C[C@H](OC(=O)CCC(=O)OCCCCCCOc3ccc(-c4cc(=S)ss4)cc3)C[C@H]2[C@H](O)/C=C/C(=O)O1`, the IC50 at 48 h in data set [1] is above 80 µM. For the same compound, the IC50 is above 40 µM in the data set with A-375; above 40 µM in the data set with MDA-MB-231; 25.2 µM with HeLa; above 40 µM with HepG2; above 40 µM in the data set with A549; above 40 µM in the data set on DU-145.

`C[C@H]1CCC/C=C/[C@@H]2C[C@H](OC(=O)CCC(=O)OCCCCCCOc3ccc(-c4cc(=S)ss4)cc3)C[C@H]2[C@H](OC(=O)CCC(=O)OCCCCCCOc2ccc(-c3cc(=S)ss3)cc2)/C=C/C(=O)O1`: the IC50 at 48 h in data set [1] was above 40 µM. Moreover, the IC50 in the data set with A-375, in the data set with MDA-MB-231, in the data set on HeLa, with HepG2, in the data set with A549 and in the data set on DU-145 was above 40 µM each time.

Take `C[C@H]1CCC/C=C/[C@@H]2C[C@H](OC(=O)CCCC(=O)OCCCCCCOc3ccc(-c4cc(=S)ss4)cc3)C[C@H]2[C@H](OC(=O)CCCC(=O)OCCCCCCOc2ccc(-c3cc(=S)ss3)cc2)/C=C/C(=O)O1`: the IC50 at 48 h in data set [1] is above 40 µM. Moreover, the IC50 with A-375, in the data set on MDA-MB-231, with HeLa, in the data set with HepG2, in the data set on A549 and with DU-145 was above 40 µM throughout.

For the compound `C[C@H]1CCC/C=C/[C@@H]2C[C@H](OC(=O)CCCC(=O)OCCOc3ccc(-c4cc(=S)ss4)cc3)C[C@H]2[C@H](OC(=O)CCCC(=O)OCCOc2ccc(-c3cc(=S)ss3)cc2)/C=C/C(=O)O1`, the IC50 at 48 h in data set [1] is above 40 µM. For the same compound, the IC50 in the data set with A-375, in the data set with MDA-MB-231, in the data set with HeLa, in the data set with HepG2, with A549 and in the data set on DU-145 was above 40 µM in each case.

As to `C[C@H]1CCC/C=C/[C@@H]2C[C@H](O)C[C@H]2[C@H](OC(=O)c2ccccc2C(=O)OCCCCCCOc2ccc(-c3cc(=S)ss3)cc2)/C=C/C(=O)O1`, in data set [1], the IC50 at 48 h was above 80 µM. In addition, the IC50 with A-375, in the data set on MDA-MB-231, in the data set with HeLa, in the data set with HepG2, with A549 and with DU-145 was above 40 µM throughout.

In the case of `C[C@H]1CCC/C=C/[C@@H]2C[C@H](O)C[C@H]2[C@H](OC(=O)c2ccccc2C(=O)OCCOc2ccc(-c3cc(=S)ss3)cc2)/C=C/C(=O)O1`, the IC50 at 48 h in data set [1] is above 80 µM. Moreover, the IC50 with A-375, in the data set with MDA-MB-231, with HeLa, in the data set with HepG2, in the data set with A549 and in the data set on DU-145 was above 40 µM each time.

Regarding `C[C@H]1CCC/C=C/[C@@H]2C[C@H](O)C[C@H]2[C@H](OC(=O)c2ccccc2C(=O)OCCCCOc2ccc(-c3cc(=S)ss3)cc2)/C=C/C(=O)O1`, the IC50 at 48 h in data set [1] is above 80 µM. In addition, the IC50 is above 40 µM in the data set with A-375; above 40 µM in the data set with MDA-MB-231; 26.9 µM in the data set on HeLa; above 40 µM in the data set with HepG2; above 40 µM in the data set with A549; above 40 µM in the data set with DU-145.

Regarding `C[C@H]1CCC/C=C/[C@@H]2C[C@H](OC(=O)CCCC(=O)OCCCCOc3ccc(-c4cc(=S)ss4)cc3)C[C@H]2[C@H](OC(=O)CCCC(=O)OCCCCOc2ccc(-c3cc(=S)ss3)cc2)/C=C/C(=O)O1`, in data set [1], the IC50 at 48 h is above 40 µM. In addition, the IC50 in the data set with A-375, in the data set with MDA-MB-231, with HeLa, in the data set with HepG2, in the data set with A549 and in the data set on DU-145 was above 40 µM throughout.

With `C[C@H]1CCC/C=C/[C@@H]2C[C@H](OC(=O)c3ccccc3C(=O)OCCCCCCOc3ccc(-c4cc(=S)ss4)cc3)C[C@H]2[C@H](OC(=O)c2ccccc2C(=O)OCCCCCCOc2ccc(-c3cc(=S)ss3)cc2)/C=C/C(=O)O1`, in data set [1], the IC50 at 48 h is above 40 µM. Besides, the IC50 in the data set on A-375, with MDA-MB-231, in the data set with HeLa, in the data set with HepG2, in the data set on A549 and in the data set with DU-145 was above 40 µM in each case.

Take `C[C@H]1CCC/C=C/[C@@H]2C[C@H](OC(=O)CCC(=O)Oc3ccc(-c4cc(=S)ss4)cc3)C[C@H]2[C@H](OC(=O)CCC(=O)Oc2ccc(-c3cc(=S)ss3)cc2)/C=C/C(=O)O1`: the IC50 at 48 h in data set [1] is above 40 µM. Besides, the IC50 with A-375, in the data set on MDA-MB-231, in the data set with HeLa, in the data set with HepG2, with A549 and in the data set with DU-145 was above 40 µM throughout.
